Strand notation (5' to 3'): a small letter for the sugar, then the base; units joined by * are phosphorothioate-linked, units joined directly phosphodiester-linked; [ ] holds rarer units or linkages, { } end groups; capitals alone tell only the bases. l = locked nucleic acid (LNA); [5mC] = 5-methylcytosine; d = 2'-deoxy (DNA)
Key:
A549 lung cancer cells = test: Measurement of proliferating viable cells (MTS assay), A549; assay type: cell-based, human; conditions: 4 nM and 16 nM, time course post-transfection (FIG. 13)
Experimental: (§1) LNCaP prostate cancer and A549 lung cancer cells were seeded to a density of 150,000 cells per well in a 6-well plate the day prior to transfection. A549 cells were cultured in DMEM (Sigma)+10% fetal bovine serum (FBS)+2 mM Glutamax I+gentamicin (25 μg/ml) whereas LNCaP cells were cultured in RPMI 1640 Medium (Sigma)+10% fetal bovine serum (FBS)+2 mM Glutamax I+gentamicin (25 μg/ml). On the following day, medium was removed followed by addition of 1.2 ml OptiMEM containing 5 μg/ml Lipofectamine2000 (Invitrogen). Cells were incubated for 7 min before adding 0.3 ml oligonucleotides diluted in OptiMEM. The final oligonucleotide concentrations were 4 nM and 16 nM. After 4 hours of treatment, media was removed and cells were trypsinized and seeded to a density of 5000 cells per well in a clear 96 well plate (Scientific Orange no. 1472030100) in 100 μl media. Viable cells were measured at the times indicated by adding 10 μl the tetrazolium compound [3-(4,5-[…])-5-(3-carboxymethoxyphenyl)-2-(4-sulfophenyl)-2H-tetrazolium, inner salt; MTS] and an electron coupling reagent (phenazine ethosulfate; PES) (CellTiter 96® AQueous One Solution Cell Proliferation Assay, Promega). Viable cells were measured at 490 nm in a Powerwave (Biotek Instruments). The OD490 nm measurements were plotted against time/h. (See FIG. 13 and FIG. 14).

[1] = system: LNCaP prostate cancer cells; test: Measurement of proliferating viable cells (MTS assay), LNCaP; assay type: cell-based, human; conditions: 4 nM and 16 nM, time course post-transfection (FIG. 14)
Experimental: as §1

[2] = system: Caspase 3/7 activity in A549 cells; test: Caspase 3/7 activity (Caspase-Glo 3/7) in A549 cells; assay type: cell-based, human; conditions: 4 nM and 16 nM; 14 h, 48 h and 72 h (FIG. 16)
Experimental: (§2) LNCaP prostate cancer cells and A549 lung cancer cells were seeded to a density of 150,000 cells per well in a 6-well plate the day prior to transfection. A549 cells were cultured in DMEM (Sigma)+10% fetal bovine serum (FBS)+2 mM Glutamax I+gentamicin (25 μg/ml) whereas LNCaP cells were cultured in RPMI 1640 Medium (Sigma)+10% fetal bovine serum CUBS)+2 mM Glutamax I+gentamicin (25 μg/ml). The next day medium was removed followed by addition of 1.2 ml OptiMEM containing 5 μg/ml Lipofectamine2000 (Invitrogen). Cells were incubated for 7 min before adding 0.3 ml oligonucleotides diluted in OptiMEM. The final oligonucleotide concentrations were 4 nM and 16 nM. After 4 hours of treatment, media was removed and cells were trypsinized and seeded to a density of 5000 cells per well in a white 96 well plate (Nunc) in 100 μl media. Caspase 3/7 activity was measured at the times indicated by adding 100 μl Caspase-Glo 3/7 assay (Promega). Caspase 3/7 activity was measured using a luminometer. The caspase 3/7 activities were measured at three different time points 14 h, 48 h and 72 h (See FIG. 15 and FIG. 16).

[3] = system: mouse androgen receptor mRNA; test: In vivo knock-down of AR mRNA expression in mouse liver (QPCR); conditions: nude mice, 100 mg/kg i.v. q3dx4, liver 24 h after last dosing, normalised to mouse GAPDH, relative to saline treated animals
Experimental: Nude mice were dosed i.v. q3dx4 with 100 mg/kg oligonucleotide (group size of 5 mice). The antisense oligonucleotides (SEQ ID:48, SEQ ID:51, SEQ ID:58, SEQ ID:63, SEQ ID:77) were dissolved in phosphate buffered saline. Animals were sacrificed 24 h after last dosing and liver tissue was sampled and stored in RNA later until RNA extraction and QPCR analysis. Total RNA was extracted and AR mRNA expression in liver samples was measured by QPCR as described in Example 7 using a mouse AR QPCR assay (cat. Mm01238475_m1, Applied Biosystems). Results were normalised to mouse GAPDH (cat. no. 4352339E, Applied Biosystems) and knock-own was quantitated relative to saline treated controls. The data in Table 4 are presented as percentage down-regulation relative to saline treated animals.

[4] = system: Caspase 3/7 activity in LNCaP cells; test: Caspase 3/7 activity (Caspase-Glo 3/7) in LNCaP cells; assay type: cell-based, human; conditions: 4 nM and 16 nM; 14 h, 48 h and 72 h (FIG. 15)
Experimental: as §2

[5] = system: human androgen receptor mRNA; test: AR mRNA knock-down in A549, 24 h post-transfection, 0.5-16 nM (qPCR); assay type: cell-based; conditions: 0.5, 1, 2, 4, 8 and 16 nM, 24 h post-transfection (FIG. 12)
Experimental: FIG. 12: AR mRNA in A549, 24 h post-transfection
(§3) Oligonucleotides were evaluated for their potential to knock down androgen receptor mRNA expression at concentrations of 0.5, 1, 2, 4, 8 and 16 nM (see FIG. 11). LNCaP prostate cancer cells and A549 lung cancer cells were seeded to a density of 150,000 cells per well in a 6-well plate the day prior to transfection. A549 cells were cultured in DMEM (Sigma)+10% fetal bovine serum (FBS)+2 mM Glutamax I+gentamicin (25 μg/ml). LNCaP cells were cultured in RPMI 1640 Medium (Sigma)+10% fetal bovine serum (FBS)+2 mM Glutamax I+gentamicin ([…]). On the following day, medium was removed followed by addition of 1.2 ml OptiMEM containing 5 μg/ml Lipofectamine2000 (Invitrogen). Cells were incubated for 7 min before adding 0.3 ml oligonucleotides diluted in OptiMEM. The final oligonucleotide concentrations were 0.5, 1, 2, 4, 8 and 16 nM. Cells were washed and serum-containing media was added. After oligomer treatment cells were allowed to recover for 20 hours before they were harvested for RNA analysis. The procedure for RNA isolation, cDNA synthesis and qPCR were as described in Examples 5, 6 and 7.

[6] = system: human androgen receptor mRNA; test: AR mRNA knock-down in LNCaP, 24 h post-transfection, 0.5-16 nM (qPCR); assay type: cell-based; conditions: 0.5, 1, 2, 4, 8 and 16 nM, 24 h post-transfection (FIG. 11)
Experimental: FIG. 11: AR mRNA in LNCaP, 24 h post-transfection
as §3

Row | Substance | Growth of A549 lung cancer cells (viable cells, OD490 nm vs time) (A549 lung cancer cells) | Growth of LNCaP prostate cancer cells (viable cells, OD490 nm vs time) [1] | Caspase 3/7 activity in A549 cells [2] | Liver (% KD) of AR mRNA expression ([3]; listed as SEQ ID: 58, 100 mg/kg) | Caspase 3/7 activity in LNCaP cells [4] | Knock down of AR mRNA expression in lung cancer cell line A549 [5] | Knock down of AR mRNA expression in LNCaP prostate cancer cell line [6] | Liver (% KD) of AR mRNA expression ([3]; listed as SEQ ID: 77, 100 mg/kg)
1 | 5′-AsCsCsasasgstststscststscsAsGsC-3′ (antisense lA*l[5mC]*l[5mC]*dA*dA*dG*dT*dT*dT*dC*dT*dT*dC*lA*lG*l[5mC]) [SEQ ID NO: 58, LNA gapmer antisense oligonucleotide] | inhibit growth | inhibit growth | induce caspase 3/7 activity | 95.2 +/− 1.0% | induce caspase 3/7 activity | potent in knocking down AR mRNA expression | potent in knocking down AR mRNA expression | 
2 | 5′-CsCsCsasasgsgscsascstsgscsAsGsA-3′ (antisense l[5mC]*l[5mC]*l[5mC]*dA*dA*dG*dG*dC*dA*dC*dT*dG*dC*lA*lG*lA) [SEQ ID NO: 77, LNA gapmer antisense oligonucleotide] | inhibit growth | inhibit growth | induce caspase 3/7 activity |  | induce caspase 3/7 activity | potent in knocking down AR mRNA expression | potent in knocking down AR mRNA expression | 91.9 +/− 3.9%

From US7737125B2, “LNA antagonists targeting the androgen receptor” (Enzon Pharamaceuticals, Inc., priority 2007, dated 2010)
